Measured values from article PMC12557367, ““Precision on Two Wheels”–Structural Refinement of ^64Cu- and ^68Ga-Labeled Bicyclic Peptides Targeting Nectin‑4 for Improved Tumor Imaging: From Preclinical Development to First-in-Human Application” (Journal of Medicinal Chemistry, 2025).
Where two headings read alike, the source gives them in different places. Numbered stars: 1 amine (or outer) side, 2 acyl side, 3 side chain; on linkers, the order of the positions; unused ones are H or OH. Bridge positions count the residues as written; N and C are the ends. Square brackets hold non-standard residues; d marks the D form. Peptide text beside a SMILES is read from it. * marks the point of attachment. TATA = O=C(CC[*:1])N1CN(C(=O)CC[*:2])CN(C(=O)CC[*:3])C1; X1 = O=C(O)CN1CCN(CC(=O)O)CCN([C@H](CCC(=O)*)C(=O)O)CC1; 1Nal = N[C@@H](Cc1cccc2ccccc12)C(=O)O; Hyp = O=C(O)[C@@H]1C[C@@H](O)CN1; hArg = N=C(N)NCCCC[C@H](N)C(=O)O; hSer = N[C@@H](CCO)C(=O)O; Nle = CCCC[C@H](N)C(=O)O

What was measured:
[1] = molecular target: T1, immobilized human nectin-4 (Homo sapiens, UniProt Q96NY8); assay: SPR analysis of binding kinetics; conditions: for kon / koff: ±SEM; for kon: read-out: k on (SPR, *10^6 M^–1 s^–1); for koff: read-out: k off (SPR, *10^–3 s^–1)
T1 construct: close to the value determined for the complete extracellular domain of nectin-4 (0.94 nM); purchased R&D Systems 2659-N4
T1 sequence (Q96NY8 32-349 limits assumed): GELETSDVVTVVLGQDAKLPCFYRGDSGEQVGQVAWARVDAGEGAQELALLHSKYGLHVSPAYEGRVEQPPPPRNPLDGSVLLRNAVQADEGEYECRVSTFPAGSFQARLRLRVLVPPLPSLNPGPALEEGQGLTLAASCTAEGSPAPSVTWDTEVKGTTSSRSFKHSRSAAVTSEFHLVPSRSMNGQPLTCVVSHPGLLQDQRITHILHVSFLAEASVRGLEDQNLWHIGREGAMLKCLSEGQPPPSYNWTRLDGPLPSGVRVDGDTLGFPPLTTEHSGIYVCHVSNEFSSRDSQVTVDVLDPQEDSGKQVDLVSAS
Protocol: For this purpose, recombinant human nectin-4 was covalently immobilized on a CM5 sensor chip by EDC/NHS coupling. For analyses, the buffer composition (HBS-P+, pH 7.4) was similar to that of the FA assay; however, DMSO was completely omitted (1% DMSO for the FA assay).
The SPR analyses were carried out on a Biacore T200 (GE Healthcare, Chicago, IL, USA) at 25 °C using CM5 sensor chips (Cytiva) and HBS-P+ as running buffer (Cytiva) at a flow of 30 μL/min unless otherwise specified and a data collection rate of 10 Hz. All flow cells (FC) were normalized, and functionalization was performed using an amine coupling Kit (Cytiva). […] Binding analyses were performed by a single-cycle kinetic on both FC. Two start-up cycles were performed at the beginning of each experimental set, comprising the injection of bicyclic peptide (50 nM) and analysis on both FC, followed by regeneration. Binding analysis for the bicyclic peptides was performed by consecutive injection of five increasing concentrations (120 s contact time for each concentration), followed by 600 s dissociation time and analysis on both FC. The regeneration was performed by sequential injection of 10 mM NaOAc (pH 5.5) for 60 s, washing the needle using HBS-P+, injection of 10 mM NaOAc (pH 5.5) for 60 s, 600 s waiting, four injections of HBS-P+ (60 s), and a final 600 s waiting for stabilization. Blank runs using only buffer (HBS-P+) instead of the sample were carried out to obtain double-referenced chromatograms. Binding analyses were performed unless otherwise stated in a concentration range between 0.16–100 nM and 1.6–1000 nM (5-fold dilution series) and analyzed in triplicate. The data were analyzed using the Biacore Evaluation software 3.2.1. […] Data were fitted to a 1:1 binding model.

[2] = molecular target: T2, recombinant human nectin-4 (Homo sapiens, UniProt Q96NY8); assay: FA-based competitive binding assay with probe 1a; conditions: for fold lower binding affinity compared to 1e: FA K d ratio; for Hill coefficient n: competitive binding curve, variable slope
T2 construct: close to the value determined for the complete extracellular domain of nectin-4 (0.94 nM); purchased R&D Systems 2659-N4
T2 sequence (Q96NY8 32-349 limits assumed): T1 sequence (Q96NY8 32-349 limits assumed)
Protocol: For the competitive binding assay, a constant concentration of probe 1a (1 nM) and of nectin-4 (20 nM) was used, and the concentration of the competitors was varied over at least 3 orders of magnitude. […] Analysis of the curves by nonlinear regression according to dose–response inhibition with variable slope, as implemented in GraphPad Prism (see Experimental section), provided the IC50 value for displacing the probe from nectin-4.
All measurements were conducted at 37 °C over 1200 s (interval of 37 s) using a Cytation 5 multimode microplate reader (BioTek Instruments, Software Gen 5) and black 96-well microplates (BRANDplates with F-bottom wells). Experiments were conducted at an excitation wavelength of 540 nm and an emission wavelength of 620 nm. The FA (r) was calculated by Gen 5 software from the measured parallel and perpendicular fluorescence intensities (I ∥ and I ⊥, respectively) according to eq using a G factor of 0.87 (preset value). r=I∥−G×I⊥/I∥+2G×I⊥ 1
All further data analyses were conducted with GraphPad Prism (version 10.4.1, GraphPad Software, San Diego, CA, USA). The assay mixture (100 μL) contained an aqueous solution (99 μL) and DMSO (1%, v/v, 1 μL).
For the competitive binding assay, fixed concentrations of probe 1a (1 nM) and recombinant human nectin-4 (20 nM) and 10 concentrations of nonlabeled peptide (e.g., […] prepared as serial 1:1 dilution) were used (two separate experiments, each performed in duplicate). The corresponding stock solutions of 1a (2.5 nM) and nectin-4 (50 nM) were prepared in HEPES buffer, while the stock solutions of the nonlabeled peptides were prepared in 5% DMSO/HEPES buffer. nectin-4 (40 μL) and 1a (40 μL) were added to the wells, and the competition was started by the addition of the nonlabeled peptides (20 μL). The FA values were averaged over the time period of 1200 s, and plots of FA = f([peptide]) were analyzed by nonlinear regression according to the model “[inhibitor] vs. response – Variable slope (four parameters)” as implemented in GraphPad Prism. […] Therefore, the lower FA plateau was constrained to the FA value of probe 1a in the absence of nectin-4 and the competitor, which was recorded in each experiment.

[3] = tested on: HT-1376-derived tumor xenograft model; assay: Small animal PET/CT imaging; parameters: species or system mice; conditions: mouse, in vivo
Protocol: All animal experiments were performed following the protocols evaluated and approved by the Landesdirektion Sachsen, Referat 25 – Veterinärwesen, Lebensmittelüberwachung and Pharmazie (09105 Chemnitz, Germany, ethics approval number: 25-5131/562/52). HT-1376- and 5637-derived tumor xenograft models were established in NMRI nude mice (Rj: NMRI-Foxn1nu/nu, Charles River Laboratories, Sulzfeld, Germany) by subcutaneous injection of 5 × 10^6 cells in 100 μL of PBS containing 50% (v/v) Matrigel (Corning Life Sciences, Amsterdam, The Netherlands).
When the tumor volume reached 200 mm^3, PET experiments with radiotracers were performed. Radiolabeling of the ligands was performed as described previously with an apparent molar activity of 25 MBq/nmol. The radioligand stock solution (pH 6.5 – 7.5) was diluted in 0.9% NaCl, and 200 μL containing ∼9 MBq ([…]) was injected per mouse intravenously into a lateral tail vein. For blocking of target-specific radioligand binding, 75 nmol of blocking substance (1d) was administered simultaneously with the radioligand. Coincidences were recorded continuously in a 2 h PET-scan starting with the injection. Additionally, a CT scan was performed for anatomical referencing and attenuation correction. PET/CT imaging, reconstruction, and tissue delineation were carried out as described previously.

| kon ([1]; HBS-P+ pH 7.4, 25 °C) | koff ([1]; pH 7.4, HBS-P+ pH 7.4, 25 °C) | Hill coefficient n [2] | SMILES | other results |
| --- | --- | --- | --- | --- |
| 8.76e+06 M⁻¹ s⁻¹ | 0.0115 s⁻¹ | 1.18 | CSCC[C@@H]1NC(=O)[C@@H]2CSCCC(=O)N3CN(CN(C3)C(=O)CCSC[C@H](NC(=O)CN3CCN(CC(=O)O)CCN(CC(=O)O)CCN(CC(=O)O)CC3)C(=O)N3CCC[C@H]3C(=O)N[C@@H](Cc3cccc4ccccc34)C(=O)N[C@H](CC(=O)O)C(=O)N2)C(=O)CCSCC(C(N)=O)NC(=O)[C@H](Cc2c[nH]c3ccccc23)NC(=O)[C@@H]2C[C@@H](O)CN2C(=O)[C@@H]2CCCN2C(=O)[C@H]([C@@H](C)O)NC(=O)[C@H](CO)NC(=O)[C@H](Cc2c[nH]c3ccccc23)NC(=O)[C@H](CC(=O)O)NC(=O)[C@H](CCCCNC(=N)N)NC1=O (stereo partly shown) [1f] | Kd ([1]; HBS-P+ pH 7.4, 25 °C, single-cycle kinetics, 1:1 model, read-out: K d (SPR)): 1.31 nM; fold lower binding affinity compared to 1e [2]: 10 fold |
| – | – | 1.80 | CCCC[C@@H]1NC(=O)[C@@H]2CSCCC(=O)N3CN(CN(C3)C(=O)CCSC[C@H](NC(C)=O)C(=O)N3CCC[C@H]3C(=O)N[C@@H](Cc3cccc4ccccc34)C(=O)N[C@H](CC(=O)O)C(=O)N2)C(=O)CCSC[C@@H](C(N)=O)NC(=O)[C@H](Cc2c[nH]c3ccccc23)NC(=O)[C@@H]2C[C@@H](O)CN2C(=O)[C@@H]2CCCN2C(=O)[C@H]([C@@H](C)O)NC(=O)[C@H](CO)NC(=O)[C@H](Cc2c[nH]c3ccccc23)NC(=O)[C@H](CC(=O)O)NC(=O)[C@H](CCCCNC(=N)N)NC1=O [3b] (Ac-CP[1Nal][dD]C[Nle][hArg]DWSTP[Hyp]WC-NH2; linker 1-5-15 via TATA) | – |
| – | – | 2.12 | CSCC[C@@H]1NC(=O)[C@@H]2CSCCC(=O)N3CN(CN(C3)C(=O)CCSC[C@H](N)C(=O)N3CCC[C@H]3C(=O)N[C@@H](Cc3cccc4ccccc34)C(=O)N[C@H](CC(=O)O)C(=O)N2)C(=O)CCSC[C@@H](C(N)=O)NC(=O)[C@H](Cc2c[nH]c3ccccc23)NC(=O)[C@@H]2C[C@@H](O)CN2C(=O)[C@@H]2CCCN2C(=O)[C@H]([C@@H](C)O)NC(=O)[C@H](CO)NC(=O)[C@H](Cc2c[nH]c3ccccc23)NC(=O)[C@H](CC(=O)O)NC(=O)[C@H](CCCCNC(=N)N)NC1=O [1c] | – |
| – | – | 2.37 | CSCC[C@@H]1NC(=O)[C@@H]2CSCCC(=O)N3CN(CN(C3)C(=O)CCSC[C@H](NC(C)=O)C(=O)N3CCC[C@H]3C(=O)N[C@@H](Cc3cccc4ccccc34)C(=O)N[C@H](CC(=O)O)C(=O)N2)C(=O)CCSC[C@@H](C(N)=O)NC(=O)[C@H](Cc2c[nH]c3ccccc23)NC(=O)[C@@H]2C[C@@H](O)CN2C(=O)[C@@H]2CCCN2C(=O)[C@H]([C@@H](C)O)NC(=O)[C@H](CO)NC(=O)[C@H](Cc2c[nH]c3ccccc23)NC(=O)[C@H](CC(=O)O)NC(=O)[C@H](CCCCNC(=N)N)NC1=O [1d, reference compound] | – |

Further lines, the compound ahead of its results:

| SMILES | kon ([1]; HBS-P+ pH 7.4, 25 °C) | koff ([1]; pH 7.4, HBS-P+ pH 7.4, 25 °C) | Hill coefficient n [2] | other results |
| --- | --- | --- | --- | --- |
| COCC[C@@H]1NC(=O)[C@@H]2CSCCC(=O)N3CN(CN(C3)C(=O)CCSC[C@H](NC(=O)CC[C@H](C(=O)O)N3CCN(CC(=O)O)CCN(CC(=O)O)CC3)C(=O)N3CCC[C@H]3C(=O)N[C@@H](Cc3cccc4ccccc34)C(=O)N[C@H](CC(=O)O)C(=O)N2)C(=O)CCSC[C@@H](C(N)=O)NC(=O)[C@H](Cc2c[nH]c3ccccc23)NC(=O)[C@@H]2C[C@@H](O)CN2C(=O)[C@@H]2CCCN2C(=O)[C@H]([C@@H](C)O)NC(=O)[C@H](CO)NC(=O)[C@H](Cc2c[nH]c3ccccc23)NC(=O)[C@H](CC(=O)O)NC(=O)[C@H](CCCCNC(=N)N)NC1=O [[^68Ga]Ga-4] [metal not drawn] (X1-CP[1Nal][dD]C[hSer](Me)[hArg]DWSTP[Hyp]WC-NH2; linker 1-5-15 via TATA) | – | – | – | Percent fast [%] [3]: 78.47 ±3.76%; time of highest tumor uptake [3]: 8.5 min |
| CSCC[C@@H]1NC(=O)[C@@H]2CSCCC(=O)N3CN(CN(C3)C(=O)CCSC[C@H](NC(=O)CC[C@H](C(=O)O)N3CCN(CC(=O)O)CCN(CC(=O)O)CC3)C(=O)N3CCC[C@H]3C(=O)N[C@@H](Cc3cccc4ccccc34)C(=O)N[C@H](CC(=O)O)C(=O)N2)C(=O)CCSC[C@@H](C(N)=O)NC(=O)[C@H](Cc2c[nH]c3ccccc23)NC(=O)[C@@H]2C[C@@H](O)CN2C(=O)[C@@H]2CCCN2C(=O)[C@H]([C@@H](C)O)NC(=O)[C@H](CO)NC(=O)[C@H](Cc2c[nH]c3ccccc23)NC(=O)[C@H](CC(=O)O)NC(=O)[C@H](CCCCNC(=N)N)NC1=O [[^68Ga]Ga-1e] [metal not drawn] | – | – | – | Blood half life fast [3]: 1.51 ± 0.31 min; Blood half life slow [3]: 42.24 ± 4.20 min; Percent fast [%] [3]: 80.73 ±3.35%; body retention at 2 h p.i. [3]: 65%; time of highest tumor uptake [3]: 8.5 min |
| CCSC[C@@H]1NC(=O)[C@@H]2CSCCC(=O)N3CN(CN(C3)C(=O)CCSC[C@H](NC(=O)CC[C@H](C(=O)O)N3CCN(CC(=O)O)CCN(CC(=O)O)CC3)C(=O)N3CCC[C@H]3C(=O)N[C@@H](Cc3cccc4ccccc34)C(=O)N[C@H](CC(=O)O)C(=O)N2)C(=O)CCSC[C@@H](C(N)=O)NC(=O)[C@H](Cc2c[nH]c3ccccc23)NC(=O)[C@@H]2C[C@@H](O)CN2C(=O)[C@@H]2CCCN2C(=O)[C@H]([C@@H](C)O)NC(=O)[C@H](CO)NC(=O)[C@H](Cc2c[nH]c3ccccc23)NC(=O)[C@H](CC(=O)O)NC(=O)[C@H](CCCCNC(=N)N)NC1=O [compound 7] (X1-CP[1Nal][dD]CC(Et)[hArg]DWSTP[Hyp]WC-NH2; linker 1-5-15 via TATA) | 4.61e+06 M⁻¹ s⁻¹ | – | 1.93 | koff ([1]; HBS-P+ pH 7.4, 25 °C): 0.0268 s⁻¹; fold lower binding affinity compared to 1e [2]: approximately 10 fold |
| CSCC[C@@H]1NC(=O)[C@@H]2CSCCC(=O)N3CN(CN(C3)C(=O)CCSC[C@H](NC(=O)CC[C@H](C(=O)O)N3CCN(CC(=O)O)CCN(CC(=O)O)CC3)C(=O)N3CCC[C@H]3C(=O)N[C@@H](Cc3ccc4ccccc4c3)C(=O)N[C@H](CC(=O)O)C(=O)N2)C(=O)CCSC[C@@H](C(N)=O)NC(=O)[C@H](Cc2c[nH]c3ccccc23)NC(=O)[C@@H]2C[C@@H](O)CN2C(=O)[C@@H]2CCCN2C(=O)[C@H]([C@@H](C)O)NC(=O)[C@H](CO)NC(=O)[C@H](Cc2c[nH]c3ccccc23)NC(=O)[C@H](CC(=O)O)NC(=O)[C@H](CCCCNC(=N)N)NC1=O [compound 9] | 1.69e+07 M⁻¹ s⁻¹ | 0.0765 s⁻¹ | 1.57 | fold increase in k off vs 1e ([1]; SPR): 18 fold |
| CSCC[C@@H]1NC(=O)[C@@H]2CSCCC(=O)N3CN(CN(C3)C(=O)CCSC[C@H](NC(=O)CC[C@H](C(=O)O)N3CCN(CC(=O)O)CCN(CC(=O)O)CC3)C(=O)N3CCC[C@H]3C(=O)N[C@@H](Cc3cccc4ccccc34)C(=O)N[C@H](CC(=O)O)C(=O)N2)C(=O)CCSC[C@@H](C(N)=O)NC(=O)[C@H](Cc2c[nH]c3ccccc23)NC(=O)[C@@H]2C[C@@H](O)CN2C(=O)[C@@H]2CCCN2C(=O)[C@H]([C@@H](C)O)NC(=O)[C@H](CO)NC(=O)[C@H](Cc2c[nH]c3ccccc23)NC(=O)[C@H](CC(=O)O)NC(=O)[C@H](CCCCNC(=N)N)NC1=O [natGa-1e, metal not drawn] | 1.1e+06 M⁻¹ s⁻¹ | 0.0026 s⁻¹ | – | – |
